# “And” between values parts separate entries of the source, which are not always exact repeats. Equal values may be shown once.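 Cultured in 96-well plates, cells were exposed to test compound for 48 hours across five concentrations. GI50 marks 50% less growth. TGI is the concentration that stops growth completely.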
# Legend:
# Assay in all cases: inhibition of tumour cell growth, NCI panel, 48 h
# XF 498 CNS = test system: XF 498 CNS
# HOP-18 NSCLC = test system: HOP-18 NSCLC
# OVCAR-5 ovarian = test system: OVCAR-5 ovarian
# DMS 114 small cell lung = test system: DMS 114 small cell lung
# IGROV1 ovarian = test system: IGROV1 ovarian
# SK-MEL-5 melanoma = test system: SK-MEL-5 melanoma
# LXFL 529 NSCLC = test system: LXFL 529 NSCLC
# DMS 273 small cell lung = test system: DMS 273 small cell lung
# MDA-MB-231 breast = test system: MDA-MB-231 breast
# HS 578T breast = test system: HS 578T breast
SMILES,TGI (XF 498 CNS),TGI (HOP-18 NSCLC),TGI (OVCAR-5 ovarian),TGI (DMS 114 small cell lung),TGI (IGROV1 ovarian),TGI (SK-MEL-5 melanoma),TGI (LXFL 529 NSCLC),GI50 (HOP-18 NSCLC),GI50 (OVCAR-5 ovarian),TGI (DMS 273 small cell lung),GI50 (IGROV1 ovarian),GI50 (LXFL 529 NSCLC),GI50 (DMS 273 small cell lung),GI50 (DMS 114 small cell lung),GI50 (MDA-MB-231 breast),TGI (MDA-MB-231 breast),GI50 (HS 578T breast),TGI (HS 578T breast),GI50 (SK-MEL-5 melanoma),GI50 (XF 498 CNS)
COC(=O)C(=O)C(C(=O)OC)C(=O)C(=O)Nc1c(C)cccc1C (stereo unspecified),> 100 µM,> 100 µM,> 100 µM,> 100 µM,> 100 µM,> 100 µM,> 100 µM,,,,,,,,,,,,,
O=C1[C@@H]2C(c3ccc(Br)cc3)=NO[C@@H]2C(=O)N1c1ccc(Cc2ccc(N3C(=O)[C@H]4C(c5ccc(Br)cc5)=NO[C@H]4C3=O)cc2)cc1,,> 40 µM,> 40 µM,> 3.48 µM,> 40 µM,> 3.48 µM,> 40 µM,> 40 µM,> 40 µM,> 40 µM,> 40 µM,> 40 µM,,,,,,,,
Cc1ccc(NC(=O)CCCC(=O)CC(=O)c2ccc(Br)cc2)cc1,,> 100 µM,> 100 µM,> 100 µM,> 100 µM,> 100 µM,> 100 µM,,,> 100 µM,,,,,,,,,,
CN=c1ss/c(=N\C(=S)N(C)C)n1C,> 100 µM,> 100 µM,> 100 µM,> 100 µM,> 100 µM,> 100 µM,> 100 µM,,,> 100 µM,,,,,,,,,,
O=C1C(c2ccccc2)=C(c2ccccc2)C(c2ccc(Cc3ccc(C4=C(c5ccccc5)C(=O)C(c5ccccc5)=C4c4ccccc4)cc3)cc2)=C1c1ccccc1,> 100 µM,> 100 µM,> 100 µM,> 100 µM,> 100 µM,> 100 µM,,,,> 100 µM,,,,,,,,,,
COc1cc(C2c3cc4c(cc3[C@@H](NCCN(C)C)C3COC(=O)[C@H]23)OCO4)cc(OC)c1O (stereo partly specified),0.978 µM and 2.02 µM,2.63 µM and 6.98 µM,,0.533 µM and 2.11 µM,2.39 µM and 3.57 µM,1.09 µM and 1.55 µM,6.9 µM and 13.2 µM,0.108 µM and 0.428 µM,,0.803 µM and 1.36 µM,0.391 µM and 1.06 µM,,0.0137 µM and 0.0329 µM,0.0491 µM and 0.347 µM,,,,,,
CC(C)(CN1C(=O)C(Cl)=C(Cl)C1=O)CN1C(=O)C(Cl)=C(Cl)C1=O,,36.1 µM,42.7 µM,25.2 µM,40.4 µM,51.6 µM,19.7 µM,,,26.8 µM,,,,,,,,,,
Cc1nc(N)nc(N)c1CCCCc1ccc(N)cc1,23.6 µM,,23 µM,,21.2 µM,16.5 µM,20.4 µM,,,,,,,,,,,,,
O=S1(=O)N2CN3CN(C2)CN1C3,,> 86.4 µM and 91.6 µM,362 µM,55.3 µM,712 µM,124 µM,34.1 µM,24.7 µM,,> 31.6 µM and 142 µM,,,32.8 µM,,,,,,,
O=[N+]([O-])c1ccc(C2=Nc3ccccc3S(=O)C(c3ccccc3)C2)cc1 (stereo unspecified),47.9 µM,> 100 µM,92.8 µM,42.8 µM,36.9 µM,,26.7 µM,,,52.5 µM,,,,,,,,,,
CC1CC2C3CCC4=CC(=O)C=CC4(C)C3(F)C(O)CC2(C)C1(O)C(=O)COP(=O)(O)O (stereo unspecified),> 100 µM,> 100 µM,> 500 µM,,> 500 µM,> 500 µM,> 100 µM,,> 500 µM,> 100 µM,> 500 µM,,,,> 500 µM,> 500 µM,> 500 µM,> 500 µM,> 500 µM,
CCCCC1=CSC(c2ccccc2)=C(c2ccccc2)S1,,> 100 µM,,> 100 µM,> 100 µM,> 100 µM,> 100 µM,,,> 100 µM,,,,,,,,,,
COc1ccccc1NC(=O)C1=C(C)NC(C)=C(C(=O)Nc2ccccc2OC)C1c1ccccc1[N+](=O)[O-],46.2 µM,> 100 µM,85.4 µM,31.2 µM,45 µM,74.3 µM,25 µM,,,34.9 µM,,,,,,,,,,
CC(C)/C=C1\CCC(CN(C)C)C1=O (stereo unspecified),4.17 µM,8.72 µM,15.3 µM,10.3 µM,11.4 µM,12.4 µM,2.85 µM,,,,,,,,,3.01 µM,,,,
CC(C)(C)c1cc(CCC(=O)Nc2ccc(Cl)cc2)[nH]c(=S)n1,> 100 µM,> 100 µM,> 100 µM,> 100 µM,> 100 µM,> 100 µM,> 100 µM,,,> 100 µM,,,,,,,,,,
Nc1nnc2c(-c3ccccc3)[nH]nc2n1,,,> 100 µM,> 100 µM,,,> 100 µM,,,> 100 µM,,,,,,,,,,
COc1cc[c]([Sn]([c]2ccc(OC)cc2)([c]2ccc(OC)cc2)[c]2ccc(OC)cc2)cc1,> 100 µM,21.1 µM,> 100 µM,> 100 µM,> 100 µM,28.5 µM,36.4 µM,3.81 µM,33.3 µM,96.5 µM,25.9 µM,15.8 µM,25.2 µM,23.5 µM,,,,,12.7 µM,> 100 µM
Nc1nncc2c1c(Br)cn2C1OC(CO)C(O)C1O (stereo unspecified),> 100 µM,> 100 µM,> 100 µM,62.6 µM,> 100 µM,> 100 µM,> 100 µM,,,> 100 µM,,,,,,,,,,
